In US9682995B2, “Amino-substituted isothiazoles” (BAYER PHARMA AKTIENGESELLSCHAFT, priority 2013, dated 2017):

Legend:
Experiment in all cases: Kinase Profiling (KINOMEscan)
Format in all cases: binding
[1] = target: 456 kinases (of these 395 non-mutant kinases) (Homo sapiens, UniProt O14965); conditions: AURKA; 10 μM
[2] = target: 456 kinases (of these 395 non-mutant kinases) (Homo sapiens, UniProt O43318); conditions: TAK1; 10 μM
[3] = target: 456 kinases (of these 395 non-mutant kinases) (Homo sapiens, UniProt O60331); conditions: PIP5K1C; 10 μM
[4] = target: 456 kinases (of these 395 non-mutant kinases) (Homo sapiens, UniProt O94806); conditions: PRKD3; 10 μM
[5] = target: 456 kinases (of these 395 non-mutant kinases) (Homo sapiens, UniProt P00519, F317L); conditions: 10 μM
[6] = target: 456 kinases (of these 395 non-mutant kinases) (Homo sapiens, UniProt P07949, M918T); conditions: RET(M918T); 10 μM
[7] = target: 456 kinases (of these 395 non-mutant kinases) (Homo sapiens, UniProt P08631); conditions: HCK; 10 μM
[8] = target: 456 kinases (of these 395 non-mutant kinases) (Homo sapiens, UniProt P21127); conditions: CDC2L1; 10 μM
[9] = target: 456 kinases (of these 395 non-mutant kinases) (Homo sapiens, UniProt P29597); conditions: 10 μM
[10] = target: 456 kinases (of these 395 non-mutant kinases) (Homo sapiens, UniProt P30530); conditions: AXL; 10 μM
[11] = target: 456 kinases (of these 395 non-mutant kinases) (Homo sapiens, UniProt P36888, D835Y); conditions: FLT3(D835Y); 10 μM
[12] = target: 456 kinases (of these 395 non-mutant kinases) (Homo sapiens, UniProt P42336, I800L); conditions: PIK3CA(I800L); 10 μM
[13] = target: 456 kinases (of these 395 non-mutant kinases) (Homo sapiens, UniProt P42684); conditions: ABL2; 10 μM
[14] = target: 456 kinases (of these 395 non-mutant kinases) (Homo sapiens, UniProt P53671); conditions: LIMK2; 10 μM
[15] = target: 456 kinases (of these 395 non-mutant kinases) (Homo sapiens, UniProt P57078); conditions: RIPK4; 10 μM
[16] = target: 456 kinases (of these 395 non-mutant kinases) (Homo sapiens, UniProt Q05655); conditions: PRKCD; 10 μM
[17] = target: 456 kinases (of these 395 non-mutant kinases) (Homo sapiens, UniProt Q13627); conditions: DYRK1A; 10 μM
[18] = target: 456 kinases (of these 395 non-mutant kinases) (Homo sapiens, UniProt Q16816); conditions: PHKG1; 10 μM
[19] = target: 456 kinases (of these 395 non-mutant kinases) (Homo sapiens, UniProt Q32MK0); conditions: MLCK; 10 μM
[20] = target: 456 kinases (of these 395 non-mutant kinases) (Homo sapiens, UniProt Q52WX2); conditions: SBK1; 10 μM
[21] = target: 456 kinases (of these 395 non-mutant kinases) (Homo sapiens, UniProt Q5VT25); conditions: MRCKA; 10 μM
[22] = target: 456 kinases (of these 395 non-mutant kinases) (Homo sapiens, UniProt Q86V86); conditions: PIM3; 10 μM
[23] = target: 456 kinases (of these 395 non-mutant kinases) (Homo sapiens, UniProt Q8IW41); conditions: MAPKAPK5; 10 μM
[24] = target: 456 kinases (of these 395 non-mutant kinases) (Homo sapiens, UniProt Q8N4C8); conditions: MINK; 10 μM
[25] = target: 456 kinases (of these 395 non-mutant kinases) (Homo sapiens, UniProt Q9BUB5); conditions: MKNK1; 10 μM
[26] = target: 456 kinases (of these 395 non-mutant kinases) (Homo sapiens, UniProt Q9H3Y6); conditions: SRMS; 10 μM
[27] = target: 456 kinases (of these 395 non-mutant kinases) (Homo sapiens, UniProt Q9NRH2); conditions: SNRK; 10 μM
[28] = target: 456 kinases (of these 395 non-mutant kinases) (Homo sapiens, UniProt Q9UIK4); conditions: DAPK2; 10 μM
[29] = target: 456 kinases (of these 395 non-mutant kinases) (Homo sapiens, UniProt Q9UL54); conditions: TAOK2; 10 μM
[30] = target: 456 kinases (of these 395 non-mutant kinases) (Homo sapiens, UniProt Q9UQB9); conditions: AURKC; 10 μM
[31] = system: 456 kinases (of these 395 non-mutant kinases); conditions: 10 μM

Chain of 456 kinases (of these 395 non-mutant kinases) (Homo sapiens, UniProt P42684) (P42684 2-1182 limits assumed, change not shown): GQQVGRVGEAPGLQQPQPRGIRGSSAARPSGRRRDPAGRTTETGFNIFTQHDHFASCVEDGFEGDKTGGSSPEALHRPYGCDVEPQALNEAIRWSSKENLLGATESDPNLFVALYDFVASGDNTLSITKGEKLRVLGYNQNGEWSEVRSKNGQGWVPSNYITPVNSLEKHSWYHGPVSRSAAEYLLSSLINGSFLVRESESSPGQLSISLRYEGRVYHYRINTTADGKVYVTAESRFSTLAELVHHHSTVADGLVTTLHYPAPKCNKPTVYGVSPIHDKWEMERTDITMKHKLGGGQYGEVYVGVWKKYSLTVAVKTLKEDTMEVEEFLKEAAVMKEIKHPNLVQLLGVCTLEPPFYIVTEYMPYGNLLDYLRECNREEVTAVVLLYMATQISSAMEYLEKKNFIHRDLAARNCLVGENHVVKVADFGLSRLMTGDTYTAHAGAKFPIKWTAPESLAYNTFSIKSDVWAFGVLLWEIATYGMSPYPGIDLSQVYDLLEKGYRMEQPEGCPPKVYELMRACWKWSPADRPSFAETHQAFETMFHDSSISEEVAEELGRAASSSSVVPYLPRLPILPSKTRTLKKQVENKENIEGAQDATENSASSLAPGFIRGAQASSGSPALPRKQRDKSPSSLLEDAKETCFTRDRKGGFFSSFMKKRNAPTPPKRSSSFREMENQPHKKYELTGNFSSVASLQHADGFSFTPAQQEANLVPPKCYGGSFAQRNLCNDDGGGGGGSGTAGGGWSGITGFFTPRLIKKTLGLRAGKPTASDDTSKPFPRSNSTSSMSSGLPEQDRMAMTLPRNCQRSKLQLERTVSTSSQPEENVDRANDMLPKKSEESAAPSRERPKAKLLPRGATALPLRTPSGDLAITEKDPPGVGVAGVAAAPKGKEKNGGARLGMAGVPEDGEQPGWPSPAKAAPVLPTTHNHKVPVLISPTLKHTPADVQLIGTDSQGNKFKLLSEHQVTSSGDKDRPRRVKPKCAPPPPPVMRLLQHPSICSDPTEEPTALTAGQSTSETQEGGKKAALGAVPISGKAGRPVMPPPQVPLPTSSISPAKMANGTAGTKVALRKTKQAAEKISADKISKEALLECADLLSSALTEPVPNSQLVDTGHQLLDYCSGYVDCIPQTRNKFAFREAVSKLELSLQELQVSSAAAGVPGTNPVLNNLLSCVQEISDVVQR
Chain of 456 kinases (of these 395 non-mutant kinases) (Homo sapiens, UniProt P07949, M918T) (P07949 29-1114 M918T limits assumed): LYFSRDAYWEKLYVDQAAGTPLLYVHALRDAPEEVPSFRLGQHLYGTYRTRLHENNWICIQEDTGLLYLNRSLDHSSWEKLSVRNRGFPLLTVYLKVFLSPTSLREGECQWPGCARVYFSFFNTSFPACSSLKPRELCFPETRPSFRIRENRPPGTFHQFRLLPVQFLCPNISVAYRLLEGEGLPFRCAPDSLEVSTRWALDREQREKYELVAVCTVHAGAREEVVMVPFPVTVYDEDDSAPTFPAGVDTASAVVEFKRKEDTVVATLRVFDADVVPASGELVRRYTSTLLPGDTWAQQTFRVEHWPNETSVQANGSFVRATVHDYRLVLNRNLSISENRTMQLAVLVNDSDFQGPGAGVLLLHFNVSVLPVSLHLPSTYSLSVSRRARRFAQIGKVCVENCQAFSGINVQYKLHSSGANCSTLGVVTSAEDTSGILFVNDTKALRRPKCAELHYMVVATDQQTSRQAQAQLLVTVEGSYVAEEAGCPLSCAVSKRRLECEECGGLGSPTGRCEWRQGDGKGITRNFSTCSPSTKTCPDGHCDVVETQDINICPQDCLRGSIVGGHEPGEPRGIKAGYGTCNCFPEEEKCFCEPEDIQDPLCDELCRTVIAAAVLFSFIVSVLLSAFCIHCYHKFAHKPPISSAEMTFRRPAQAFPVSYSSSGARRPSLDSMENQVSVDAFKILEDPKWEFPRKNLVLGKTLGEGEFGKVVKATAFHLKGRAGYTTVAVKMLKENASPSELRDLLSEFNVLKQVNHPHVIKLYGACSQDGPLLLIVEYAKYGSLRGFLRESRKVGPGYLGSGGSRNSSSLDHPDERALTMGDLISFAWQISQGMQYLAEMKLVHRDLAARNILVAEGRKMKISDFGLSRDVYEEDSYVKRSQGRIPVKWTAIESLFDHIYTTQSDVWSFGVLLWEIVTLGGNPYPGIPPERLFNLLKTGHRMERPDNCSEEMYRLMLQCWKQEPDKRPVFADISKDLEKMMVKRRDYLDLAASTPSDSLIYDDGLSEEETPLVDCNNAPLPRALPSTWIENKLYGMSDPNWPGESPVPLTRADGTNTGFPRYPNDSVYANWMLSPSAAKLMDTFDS
Chain of 456 kinases (of these 395 non-mutant kinases) (Homo sapiens, UniProt P08631) (P08631 2-526 limits assumed, change not shown): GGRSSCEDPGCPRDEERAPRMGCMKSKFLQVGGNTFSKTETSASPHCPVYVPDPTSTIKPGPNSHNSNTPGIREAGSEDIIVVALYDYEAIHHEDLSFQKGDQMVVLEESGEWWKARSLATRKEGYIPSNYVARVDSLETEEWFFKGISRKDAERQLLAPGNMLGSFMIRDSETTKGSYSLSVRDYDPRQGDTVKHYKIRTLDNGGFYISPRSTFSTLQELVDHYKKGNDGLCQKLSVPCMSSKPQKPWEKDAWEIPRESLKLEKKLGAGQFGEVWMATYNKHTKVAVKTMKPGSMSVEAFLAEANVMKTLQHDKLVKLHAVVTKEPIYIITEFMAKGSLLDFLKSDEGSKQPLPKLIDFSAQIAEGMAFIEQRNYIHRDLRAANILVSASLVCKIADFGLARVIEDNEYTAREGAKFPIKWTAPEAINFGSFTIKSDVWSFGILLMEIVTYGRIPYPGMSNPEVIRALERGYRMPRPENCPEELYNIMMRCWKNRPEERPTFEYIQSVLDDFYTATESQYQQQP
Chain of 456 kinases (of these 395 non-mutant kinases) (Homo sapiens, UniProt P30530) (P30530 26-894 limits assumed, stated change not applied): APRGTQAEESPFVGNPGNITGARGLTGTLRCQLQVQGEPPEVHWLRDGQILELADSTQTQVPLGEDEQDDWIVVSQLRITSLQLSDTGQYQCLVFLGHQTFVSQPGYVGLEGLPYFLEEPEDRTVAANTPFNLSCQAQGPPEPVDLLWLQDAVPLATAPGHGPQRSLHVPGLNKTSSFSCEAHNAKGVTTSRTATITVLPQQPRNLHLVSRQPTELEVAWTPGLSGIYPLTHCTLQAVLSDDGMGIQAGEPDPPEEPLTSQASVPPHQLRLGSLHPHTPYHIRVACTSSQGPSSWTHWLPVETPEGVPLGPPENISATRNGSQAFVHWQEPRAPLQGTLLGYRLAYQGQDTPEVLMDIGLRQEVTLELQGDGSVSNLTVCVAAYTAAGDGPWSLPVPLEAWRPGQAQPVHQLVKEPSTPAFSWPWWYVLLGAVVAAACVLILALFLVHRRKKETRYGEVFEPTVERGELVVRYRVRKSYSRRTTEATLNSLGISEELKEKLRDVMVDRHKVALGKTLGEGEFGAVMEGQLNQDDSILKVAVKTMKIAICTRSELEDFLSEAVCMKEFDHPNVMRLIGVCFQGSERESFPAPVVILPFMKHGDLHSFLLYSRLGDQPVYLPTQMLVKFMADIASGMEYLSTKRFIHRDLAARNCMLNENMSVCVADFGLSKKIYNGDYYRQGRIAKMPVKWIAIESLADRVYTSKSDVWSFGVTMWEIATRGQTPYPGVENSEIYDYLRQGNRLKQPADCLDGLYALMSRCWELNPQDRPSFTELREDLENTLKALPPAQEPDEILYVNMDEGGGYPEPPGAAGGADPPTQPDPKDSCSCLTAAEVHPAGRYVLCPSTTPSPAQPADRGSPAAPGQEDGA

## CCc1ccccc1NC(=O)c1c(C)nsc1Nc1cnc2cc(F)ccc2n1 [Example 20, N-(2-Ethylphenyl)-5-[(6-fluoroquinoxalin-2-yl)amino]-3-methyl-1,2-thiazole-4-carboxamide]
[1]
  % Ctrl @ 10 μM: 100 % Ctrl
[2]
  % Ctrl @ 10 μM: 100 % Ctrl
[3]
  % Ctrl @ 10 μM: 100 % Ctrl
[4]
  % Ctrl @ 10 μM: 97 % Ctrl
[5]; ABL1(F317L)-nonphosphorylated
  % Ctrl @ 10 μM: 100 % Ctrl
[5]; ABL1(F317L)-phosphorylated
  % Ctrl @ 10 μM: 100 % Ctrl
[6]
  % Ctrl @ 10 μM: 78 % Ctrl
[7]
  % Ctrl @ 10 μM: 59 % Ctrl
[8]
  % Ctrl @ 10 μM: 92 % Ctrl
[9]; TYK2(JH1domain-catalytic)
  % Ctrl @ 10 μM: 100 % Ctrl
[9]; TYK2(JH2domain-pseudokinase)
  % Ctrl @ 10 μM: 100 % Ctrl
[10]
  % Ctrl @ 10 μM: 90 % Ctrl
[11]
  % Ctrl @ 10 μM: 100 % Ctrl
[12]
  % Ctrl @ 10 μM: 93 % Ctrl
[13]
  % Ctrl @ 10 μM: 100 % Ctrl
[14]
  % Ctrl @ 10 μM: 94 % Ctrl
[15]
  % Ctrl @ 10 μM: 100 % Ctrl
[16]
  % Ctrl @ 10 μM: 85 % Ctrl
[17]
  % Ctrl @ 10 μM: 100 % Ctrl
[18]
  % Ctrl @ 10 μM: 70 % Ctrl
[19]
  % Ctrl @ 10 μM: 88 % Ctrl
[20]
  % Ctrl @ 10 μM: 91 % Ctrl
[21]
  % Ctrl @ 10 μM: 92 % Ctrl
[22]
  % Ctrl @ 10 μM: 100 % Ctrl
[23]
  % Ctrl @ 10 μM: 100 % Ctrl
[24]
  % Ctrl @ 10 μM: 100 % Ctrl
[25]
  % Ctrl @ 10 μM: 100 % Ctrl
[26]
  % Ctrl @ 10 μM: 100 % Ctrl
[27]
  % Ctrl @ 10 μM: 100 % Ctrl
[28]
  % Ctrl @ 10 μM: 73 % Ctrl
[29]
  % Ctrl @ 10 μM: 100 % Ctrl
[30]
  % Ctrl @ 10 μM: 73 % Ctrl
[31]; EGFR(L747-E749del, A750P)
  % Ctrl @ 10 μM: 94 % Ctrl
[31]; EGFR(L747-S752del, P753S)
  % Ctrl @ 10 μM: 100 % Ctrl
[31]; EGFR(L747-T751del,Sins)
  % Ctrl @ 10 μM: 100 % Ctrl
[31]; FLT3(ITD)
  % Ctrl @ 10 μM: 67 % Ctrl
